Measured values taken from patent US20240299328A1, “COMPOSITIONS COMPRISING 15-HEPE AND METHODS OF TREATING AND/OR PREVENTING HEMATOLOGIC DISORDERS AND RELATED DISEASES” (Afimmune Limited, priority 2023, published 2024).
Read-outs that look alike come from different tables or passages of the source. Marks after values point to notes of the source that are not given here.

How the values were obtained:
NAFLD patients = system: NAFLD patients
Description: Safety Assessments included the following: medical history; physical examination; ECG; vital signs; clinical laboratory safety tests (e.g., hematology, serum biochemistry, coagulation, lipid profile, and urinalysis); virology; pregnancy test; blood sampling; pharmacokinetic sampling; exploratory blood collection; biomarker blood collection; urine DOA and alcohol breath test; adverse event assessment; concomitant medication; bioanalysis; sample, storage, handling; and shipping; and restrictions. A detailed description of each is provided below.
AEs were recorded in the case report form, defining relationship to IMP and severity.
SAE: If a patient experienced a serious adverse event after the first dose of the study drug, the event was recorded as a SAE. A SAE is characterized as an untoward medical occurrence at any dose to include any of the following: results in death, is life threatening, requires in-patient hospitalization or prolongation of existing hospitalization, or results in persistent or significant disability/incapacity. The term “life-threatening” refers to an event in which the patient was at risk of death at the time of the event.
Safety Analysis: Demographic, medical history and physical examination data were listed for each patient and summarized descriptively. All AEs recorded during the study were coded to system organ class and preferred terms using the current version of the Medical Dictionary for Regulatory Activities (MedDRA). AEs were tabulated and summarized by treatment, relationship to treatment, seriousness and severity. Clinical laboratory values (e.g., hematology, biochemistry, and urinalysis) were listed for each patient by treatment and day. Values outside the laboratory normal ranges were listed separately with associated comments as to their clinical significance, with potentially clinically significant abnormalities highlighted and summarized by treatment. Clinical laboratory values obtained prior to dosing were defined as baseline values. Alcohol breath test and DOA test results were listed for each patient. Individual values of vital signs were listed and summarized descriptively for each treatment and day. 12 lead ECG assessments were listed for each patient with all associated comments and summarized by treatment and day. Concomitant medications (if any), categorized by medication group and subgroup according to the latest version of the World Health Organization drug dictionary, were listed and summarized by treatment. In general, appropriate descriptive statistics according to the nature of the variable were applied. Categorical variables were presented using counts and percentage, whilst continuous variables were presented using mean, standard deviation, median, minimum, maximum, coefficient of variation and number of patients.

[1] = system: α-SMA, TIMP-1, TGF-β and Collagen Type 1 mRNA; assay: UUO study: quantitative RT-PCR of kidney; type: in vivo; conditions: UUO mice kidney, normalized to 36B4, Day 14, mean ± SD
Method: Quantitative RT-PCR: Total ribonucleic acid (RNA) was extracted from kidney samples using RNAiso. One μg of RNA was reverse-transcribed using a reaction mixture containing […] (mM) of magnesium chloride (MgCl2), 40 U RNase inhibitor, 0.5 mM dNTP, 6.28 µM random hexamer, 5× first strand buffer, 10 mM dithiothreitol and 200 U MMLV-RT in a final volume of 20 μL. The reaction was carried out for 1 hour at 37° C., followed by 5 minutes at 99° C. Real-time PCR was performed using real-time PCR DICE and TB Green™ Premix Ex Taq™ II. To calculate the relative […] (mRNA) expression level, the expression of each gene (e.g., α-SMA, TIMP-1, TGF-β and Collagen Type 1) was normalized to that of reference gene 36B4 (gene symbol: Rplp0). Information regarding the PCR-primer sets and the plate layout are described in Tables 1 and 2.

Sprague Dawley rats = assay: 26 week rat toxicity study: coagulation; type: in vivo; conditions: male rats, 26 weeks
Method: The test and control items were administered to the appropriate animals by once daily oral gavage 7 days a week for a minimum of 26 weeks. The volume for each animal was based on the most recent body weight measurements. The doses were given using a syringe with attached gavage cannula. The first day of dosing was designated as Day 1. The dosing formulations were removed from the refrigerator and stirred for at least 30 minutes before dosing. The dosing formulations were also stirred continuously during dosing.
Sample Collection: Blood was collected via the tail vein unless immediately prior to necropsy, when blood was collected from the orbital sinus under non-recoverable isoflurane anesthesia. Blood was collected in ascending animal order unless samples were collected prior to necropsy where the order of euthanasia was followed. Additional blood samples were obtained (e.g., due to clotting of non-serum samples) if permissible sampling frequency and blood volume were not exceeded. After collection, samples were transferred to the appropriate laboratory for processing. Samples were collected according to the following table.
Coagulation: A 0.5 mL blood sample was collected using the anticoagulant 3.8% (w/v) trisodium citrate for processing to plasma. To assess coagulation the following coagulation parameters were measured.
Animals: The study used male and female Sprague Dawley rats purchased from Charles River UK Limited (Margate, Kent, UK). The target age at the initial dosing was 7-8 weeks. The target weight at the initial dosing was 175-300 g (males) and 120-250 g (females). Each animal was identified using a subcutaneously implanted electronic cylindrical, “glass-sealed” TROVAN microchip.

BDL-operated mice = assay: BDL study: serum biochemistry (ALT, total bilirubin); type: in vivo
Method: Sample Collection: For serum samples, non-fasting blood was collected in serum separate tubes without anticoagulant through direct cardiac puncture and centrifuged at 3,500×g for 4 minutes at 4° C. The superatant was collected and stored at −80° C. for biochemistry (30 μL) and shipping (all the remaining). For liver samples, left lateral lobe was collected and cut into 6 pieces. Two pieces of left lateral lobe were fixed in Bouin's solution and then embedded in paraffin. Samples were stored at room temperature for histological analysis. The other 2 pieces of left lateral lobe were embedded in O.C.T. compound and quick frozen in liquid nitrogen. Samples were stored at −80° C. The remaining pieces of left lateral lobe was snap frozen in liquid nitrogen and stored at −80° C. for gene expression analyses. Right medial lobe, left medial lobe, right lobe and caudate lobe were snap frozen in liquid nitrogen and stored at −80° C. for shipping.

[2] = 6000/3000 mg/kg/day oral gavage
[3] = 50 mg/kg PO QD Day 0-13, Day 14, mean ± SD
[4] = 250 mg/kg PO QD Day 0-13, Day 14, mean ± SD
[5] = 500 mg/kg PO QD Day 0-13, Day 14, mean ± SD
[6] = DS102 50, 250, 500 mg/kg groups vs Vehicle group

CC/C=C\C[C@H](O)/C=C/C=C\C/C=C\C/C=C\CCCC(=O)OCC [DS102, 15(S)-hydroxy-(5Z,8Z,11Z,13E,17Z)-eicosapentaenoic acid ethyl ester]
AEs leading to treatment discontinuation (NAFLD patients; 1 g DS102 (n = 32)): 0 n (%)
Death (NAFLD patients; 1 g DS102 (n = 32)): 0 n (%)
Patients with ≥1 AE (NAFLD patients; 1 g DS102 (n = 32)): 19 (59.4) n (%)
Patients with ≥1 AE related to study drug (NAFLD patients; 1 g DS102 (n = 32)): 2 (6.3) n (%)
Patients with ≥1 SAE (NAFLD patients; 1 g DS102 (n = 32)): 0 n (%)
SAEs related to drug study (NAFLD patients; 1 g DS102 (n = 32)): 0 n (%)
AEs leading to treatment discontinuation (NAFLD patients; 2 g DS102 (n = 30)): 0 n (%)
Death (NAFLD patients; 2 g DS102 (n = 30)): 0 n (%)
Patients with ≥1 AE (NAFLD patients; 2 g DS102 (n = 30)): 15 (50.0) n (%)
Patients with ≥1 AE related to study drug (NAFLD patients; 2 g DS102 (n = 30)): 3 (10.0) n (%)
Patients with ≥1 SAE (NAFLD patients; 2 g DS102 (n = 30)): 1 (3.3) n (%)
SAEs related to drug study (NAFLD patients; 2 g DS102 (n = 30)): 0 n (%)
safety and tolerance (NAFLD patients; NAFLD patients, 1 g or 2 g per day, 16 weeks, compared to placebo): safe and well tolerated
Alpha-SMA mRNA expression level ([1]; 50 mg/kg PO QD Day 0-13): 3.74 ± 0.81
Collagen Type 1 mRNA expression level ([1]; 50 mg/kg PO QD Day 0-13): 11.80 ± 1.78
TGF-β mRNA expression level ([1]; 50 mg/kg PO QD Day 0-13): 4.31 ± 0.69
TIMP-1 mRNA expression level ([1]; 50 mg/kg PO QD Day 0-13): 138.30 ± 30.39
Alpha-SMA mRNA expression level ([1]; 500 mg/kg PO QD Day 0-13): 5.54 ± 1.54
Collagen Type 1 mRNA expression level ([1]; 500 mg/kg PO QD Day 0-13): 14.09 ± 2.88
TGF-β mRNA expression level ([1]; 500 mg/kg PO QD Day 0-13): 5.37 ± 0.76
TIMP-1 mRNA expression level ([1]; 500 mg/kg PO QD Day 0-13): 124.80 ± 28.60
Activated Partial Thromboplastin Time (APTT), Mean (Sprague Dawley rats; 2000 mg/kg/day oral gavage): 15.03* sec
Fibrinogen (FIB), Mean (Sprague Dawley rats; 2000 mg/kg/day oral gavage): 2.35** g/L
Prothrombin Time (PT), Mean (Sprague Dawley rats; 2000 mg/kg/day oral gavage): 10.69** sec
Activated Partial Thromboplastin Time (APTT), Mean (Sprague Dawley rats; [2]): 15.73** sec
Fibrinogen (FIB), Mean (Sprague Dawley rats; [2]): 2.26** g/L
Prothrombin Time (PT), Mean (Sprague Dawley rats; [2]): 10.81** sec
Serum ALT (BDL-operated mice; [3]): 402 ± 112 U/L
Serum Total Bilirubin (BDL-operated mice; [3]): 26.8 ± 6.9 mg/dL
Serum ALT (BDL-operated mice; [4]): 351 ± 155 U/L
Serum Total Bilirubin (BDL-operated mice; [4]): 23.5 ± 9.8 mg/dL
Serum ALT (BDL-operated mice; [5]): 383 ± 147 U/L
Serum Total Bilirubin (BDL-operated mice; [5]): 26.2 ± 6.1 mg/dL
serum ALT level (BDL-operated mice; [6]): no significant differences
serum total bilirubin level (BDL-operated mice; [6]): no significant differences
